In US20260224486A1, “DIANHYDROHEXITOL BASED IONIZABLE LIPIDS FOR NUCLEIC ACID DELIVERY” (SANOFI PASTEUR INC., priority 2023, published 2026):

tested on: BALB/cJ mice; experiment: Delivery of hEPO mRNA by intramuscular administration of LNPs; serum hEPO by ELISA; type: in vivo, Mouse; settings: Table 2, isosorbide-derived lipids; mouse serum 6 hours post single IM injection of 0.1 μg hEPO mRNA LNP
Description: In summary, lipid screening studies were conducted with female BALB/cJ mice 6-8 weeks of age. Mice were dosed with 0.1 μg in 30 μL of LNPs by a single intramuscular (IM) injection into the gastrocnemius leg muscle. Blood samples were taken 6 and 24 hours post injection and hEPO levels were measured in the blood serum of the mice using an ELISA assay according to the manufacture's protocol.
Treatment Regimen: On Day 1, animals from Groups 1-33 were dosed via intramuscular injection while under light isoflurane anesthesia according to the study design table above. Animals in Groups 1-33 were injected with EPO mRNA LNPs in the right leg only. Groups 1 and 17 animals received MC3 control.
Interim Sample Collections: Interim whole blood (^~50 μL) was collected by tail snip or saphenous vein at 6 and 24 hours post dose administration (±5%). Blood samples were collected into serum separator tubes, allowed to clot at room temperature for at least 10 minutes, centrifuged at ambient temperature at minimum 1000 g for 10 minutes and the serum was extracted. All serum samples were stored at nominally −70° C. until analysis hEPO by the Testing Facility. The results of the EPO analysis were included in the Data Submission.
Terminal Blood Collections: Whole blood was collected via cardiac puncture into serum separator tube, allowed to clot at room temperature for at least 10 minutes, centrifuged at ambient temperature at minimum 1000 g for 10 minutes and the serum was extracted. Serum samples were stored at nominally −70° C. until analyzed for hEPO by the Test Facility.
ELISA Assay: Human erythropoietin (hEPO) levels in sera samples were determined by ELISA kit (R&D systems, Cat #DEP-00) according to the manufactory instruction and the results were included in the Data Submission. The “shaker” protocol was used. The serum samples were diluted between 1:40 and 1:100.

| Compound | hEPO 6 Hr (ng/ml) Mean [ng/mL] |
| --- | --- |
| CCCCC/C=C\C/C=C\CCCCCCCCC(CCCCCCCC/C=C\C/C=C\CCCCC)OC(=O)CCCN(C)C [MC3, reference compound] | 7.1 |

same assay, conditions: Table 3, isomannide-derived lipids; mouse serum 6 hours post single IM injection of 0.1 μg hEPO mRNA LNP

| Compound | hEPO 6 Hr (ng/mL) Mean [ng/mL] |
| --- | --- |
| CCCCC/C=C\C/C=C\CCCCCCCCC(CCCCCCCC/C=C\C/C=C\CCCCC)OC(=O)CCCN(C)C [MC3, reference compound] | 5.6 |

same assay, conditions: Table 4, further lipids; mouse serum 6 hours post IM injection of hEPO mRNA LNP as in example 3

| Compound | hEPO 6 Hr (ng/ml) Mean [ng/mL] |
| --- | --- |
| CCCCCCCCCCCOC(=O)CCCCCN(CCCCCCCC(=O)OC(CCCCCCCC)CCCCCCCC)CCCCSC(=O)N[C@H]1CO[C@H]2[C@@H]1OC[C@@H]2NC(=O)SCCCCN(CCCCCCCC(=O)OC(CCCCCCCC)CCCCCCCC)CCCCCC(=O)OCCCCCCCCCCC (stereo in doubt) [Compound 84] | 22.1 |
| CCCCCCCCCCCOC(=O)CCCC(O)CN(CCCC(=O)O[C@@H]1CO[C@H]2[C@@H]1OC[C@H]2OC(=O)CCCN(CC(O)CCCCCOC(=O)C(CCCCCCCC)CCCCCCCC)CC(O)CCCC(=O)OCCCCCCCCCCC)CC(O)CCCCCOC(=O)C(CCCCCCCC)CCCCCCCC (stereo partly shown) [Compound 12] | 34.4 |
| CCCCCCCCCCC(O)CN(CCCC(=O)S[C@H]1CO[C@H]2[C@@H]1OC[C@@H]2SC(=O)CCCN(CC(O)CCCCCCCCCC)CC(O)CCCCCCCCCC)CC(O)CCCCCCCCCC (stereo partly shown) [Compound 44] | 2.0 |
| CCCCCCCCCCC(O)CN(CCCSS[C@H]1CO[C@H]2[C@@H]1OC[C@@H]2SSCCCN(CC(O)CCCCCCCCCC)CC(O)CCCCCCCCCC)CC(O)CCCCCCCCCC (stereo partly shown) [Compound 45] | 2.2 |
| CCCCCCCCCCC(O)CN(CCCCS[C@H]1CO[C@H]2[C@@H]1OC[C@@H]2SCCCCN(CC(O)CCCCCCCCCC)CC(O)CCCCCCCCCC)CC(O)CCCCCCCCCC (stereo partly shown) [Compound 46] | 2.1 |
| CCCCCCCCCCC(O)CCN(CCCNC(=O)O[C@@H]1CO[C@H]2[C@@H]1OC[C@H]2OC(=O)NCCCN(CC(O)CCCCCCCCCC)CC(O)CCCCCCCCCC)C(O)CCCCCCCCCC (stereo partly shown) [Compound 48] | 81.3 |
| CCCCCCCCCCC(O)CN(CCCCC(=O)O[C@@H]1CO[C@H]2[C@@H]1OC[C@H]2OC(=O)CCCN(CC(O)CCCCCCCCCC)CC(O)CCCCCCCCCC)CC(O)CCCCCCCCCC (stereo partly shown) [Compound 56] | 51.9 |
| CCCCCCCCCCCCCCC(O)CN(CCCC(=O)O[C@@H]1CO[C@H]2[C@@H]1OC[C@@H]2OC(=O)CCCCN(CC(O)CCCCCCCCCC)CC(O)CCCCCCCCCC)CC(O)CCCCCCCCCCCCCC (stereo partly shown) [Compound 63] | 60.5 |
| CCCCCCCCCCCOC(=O)CCCC(O)CN(CCCC(=O)O[C@H]1CO[C@H]2[C@@H]1OC[C@H]2OC(=O)CCCN(CC(O)CCCCCOC(=O)C(CCCCCCCC)CCCCCCCC)CC(O)CCCC(=O)OCCCCCCCCCCC)CC(O)CCCCCOC(=O)C(CCCCCCCC)CCCCCCCC (stereo partly shown) [Compound 64] | 36.2 |
| CCCCCCCCCCCOC(=O)CCCC(O)CN(CCCCC(=O)O[C@@H]1CO[C@H]2[C@@H]1OC[C@@H]2OC(=O)CCCN(CC(O)CCCCCC(=O)OC(CCCCCCCC)CCCCCCCC)CC(O)CCCC(=O)OCCCCCCCCCCC)CC(O)CCCCCC(=O)OC(CCCCCCCC)CCCCCCCC (stereo partly shown) [Compound 66] | 23.2 |
| CCCCCCCCCCC(O)CN(CCCCCC(=O)O[C@@H]1CO[C@H]2[C@@H]1OC[C@@H]2OC(=O)CCCCN(CC(O)CCCCCCCCCC)CC(O)CCCCCCCCCC)CC(O)CCCCCCCCCC (stereo partly shown) [Compound 67] | 34.4 |
| CCCCCCCCC(O)CN(CCCCC(=O)N[C@H]1CO[C@H]2[C@@H]1OC[C@@H]2NC(=O)CCCCN(CC(O)CCCCCCCC)CC(O)CCCCCCCC)CC(O)CCCCCCCC (stereo partly shown) [Compound 70] | 47.6 |
| CCCCCCCCCCC(O)CN(CCCCC(=O)N[C@H]1CO[C@H]2[C@@H]1OC[C@@H]2NC(=O)CCCCN(CC(O)CCCCCCCCCC)CC(O)CCCCCCCCCC)CC(O)CCCCCCCCCC (stereo partly shown) [Compound 71] | 72.0 |
| CCCCCCCCCCCOC(=O)CCCCCN(CCCCCCCC(=O)OC(CCCCCCCC)CCCCCCCC)CCCC(=O)N[C@H]1CO[C@H]2[C@@H]1OC[C@@H]2NC(=O)CCCN(CCCCCCCC(=O)OC(CCCCCCCC)CCCCCCCC)CCCCCC(=O)OCCCCCCCCCCC [Compound 72] | 6.2 |
| CCCCCCCCCCCOC(=O)CCCC(O)CN(CCCC(=O)N[C@H]1CO[C@H]2[C@@H]1OC[C@@H]2NC(=O)CCCN(CC(O)CCCCCC(=O)OC(CCCCCCCC)CCCCCCCC)CC(O)CCCC(=O)OCCCCCCCCCCC)CC(O)CCCCCC(=O)OC(CCCCCCCC)CCCCCCCC (stereo partly shown) [Compound 73] | 23.4 |
| CCCCCC/C=C\COC(=O)CCCCCC(O)CN(CCCC(=O)N[C@H]1CO[C@H]2[C@@H]1OC[C@@H]2NC(=O)CCCN(CC(O)CCCCCC(=O)OC/C=C\CCCCCC)CC(O)CCCCCC(=O)OC/C=C\CCCCCC)CC(O)CCCCCC(=O)OC/C=C\CCCCCC (stereo partly shown) [Compound 74] | 2.1 |
| CCCCCC/C=C\COC(=O)CCCCCCCN(CCCCCCCC(=O)OC/C=C\CCCCCC)CCCC(=O)N[C@H]1CO[C@H]2[C@@H]1OC[C@@H]2NC(=O)CCCN(CCCCCCCC(=O)OC/C=C\CCCCCC)CCCCCCCC(=O)OC/C=C\CCCCCC [Compound 75] | 2.1 |
| CCCCCCCCC(O)CN(CCCOC(=O)O[C@@H]1CO[C@H]2[C@@H]1OC[C@H]2OC(=O)OCCCN(CC(O)CCCCCCCC)CC(O)CCCCCCCC)CC(O)CCCCCCCC (stereo partly shown) [Compound 79] | 21.2 |
| CCCCCCCCCCC(O)CN(CCCCC(=O)S[C@H]1CO[C@H]2[C@@H]1OC[C@@H]2SC(=O)CCCCN(CC(O)CCCCCCCCCC)CC(O)CCCCCCCCCC)CC(O)CCCCCCCCCC (stereo partly shown) [Compound 80] | 0.9 |
| CCCCCCCCCCC(O)CN(CCCS[C@H]1CO[C@H]2[C@@H]1OC[C@@H]2SCCCN(CC(O)CCCCCCCCCC)CC(O)CCCCCCCCCC)CC(O)CCCCCCCCCC (stereo partly shown) [Compound 81] | 2.3 |
| CCCCCCCCCCCCC(O)CN(CCCC(=O)S[C@H]1CO[C@H]2[C@@H]1OC[C@@H]2SC(=O)CCCN(CC(O)CCCCCCCCCCCC)CC(O)CCCCCCCCCCCC)CC(O)CCCCCCCCCCCC (stereo partly shown) [Compound 82] | 3.1 |
| CCCCCCCCCCCCC(O)CN(CCCCC(=O)SC1CO[C@@H]2C(SC(=O)CCCCN(CC(O)CCCCCCCCCCCC)CC(O)CCCCCCCCCCCC)CO[C@H]12)CC(O)CCCCCCCCCCCC (stereo partly shown) [Compound 83] | 8.0 |
| CCCCCC/C=C\COC(=O)CCCCCCCN(CCCCCCCC(=O)OC/C=C\CCCCCC)CCCCSC(=O)N[C@@H]1CO[C@H]2[C@@H]1OC[C@H]2NC(=O)SCCCCN(CCCCCCCC(=O)OC/C=C\CCCCCC)CCCCCCCC(=O)OC/C=C\CCCCCC [Compound 85] | 23.8 |

same assay, conditions: Table 5, comparative ether compounds; mouse serum 6 hours post IM injection of hEPO mRNA LNP as in example 3

| Compound | hEPO 6 Hr (ng/ml) Mean [ng/mL] |
| --- | --- |
| CCCCCCCCC(O)CN(CCCO[C@@H]1CO[C@H]2[C@@H]1OC[C@H]2OCCCN(CC(O)CCCCCCCC)CC(O)CCCCCCCC)CC(O)CCCCCCCC (stereo partly shown) [reference compound] | 11.3 |
| CCCCCCCCCCC(O)CN(CCCO[C@@H]1CO[C@H]2[C@@H]1OC[C@H]2OCCCN(CC(O)CCCCCCCCCC)CC(O)CCCCCCCCCC)CC(O)CCCCCCCCCC (stereo partly shown) [reference compound] | 33.8 |
| CCCCCCCCCCCCC(O)CN(CCCO[C@@H]1CO[C@H]2[C@@H]1OC[C@H]2OCCCN(CC(O)CCCCCCCCCCCC)CC(O)CCCCCCCCCCCC)CC(O)CCCCCCCCCCCC (stereo partly shown) [reference compound] | 13.9 |
